Results reported in ChEMBL document CHEMBL3045068, “Effect of methomyl and oxamyl soil applications on early control of nematodes and insects” (Pest Manag Sci, 2011).
In brackets after ≈: the same amount, converted by molar mass.

What was measured:
Pisum sativum [1] = assay: Phytotoxicity in Pisum sativum (pea) assessed as plant fresh weight at 3 kg ai/ha applied to soil measured up to 14 days post planting at 27 degC under green house conditions (reference value: 3.9 +/- 0.83 g); assay type: organism-based; settings: lathyrus oleraceus, in vivo, other, 336 h
Pisum sativum [2] = assay: Phytotoxicity in Pisum sativum (pea) assessed as plant fresh weight at 2 kg ai/ha applied to soil measured up to 7 days post planting at 19 degC (reference value: 9.4 +/- 0.54 g); assay type: organism-based; settings: lathyrus oleraceus, in vivo, other, 168 h
Pisum sativum [3] = assay: Phytotoxicity in Pisum sativum (pea) assessed as emergence at 4 kg ai/ha applied to soil measured up to 7 days post planting at 27 degC under green house conditions (reference value: 70 +/- 3.3%); assay type: organism-based; settings: lathyrus oleraceus, in vivo, other, 168 h
Pisum sativum [4] = assay: Phytotoxicity in Pisum sativum (pea) assessed as plant height at 4 kg ai/ha applied to soil measured up to 7 days post planting at 27 degC under green house conditions (reference value: 9.6 +/- 1.5 cm); assay type: organism-based; settings: lathyrus oleraceus, in vivo, other, 168 h
Solanum lycopersicum = assay: Phytotoxicity in Solanum lycopersicum (tomato) assessed as foliar edge burn at 200 ug/mL applied through foliar spray after 5 weeks; assay type: organism-based; settings: in vivo, other, 840 h
Pisum sativum [5] = assay: Phytotoxicity in Pisum sativum (pea) assessed as plant height at 4 kg ai/ha applied to soil measured up to 7 days post planting at 19 degC (reference value: 6.2 +/- 0.6 cm); assay type: organism-based; settings: lathyrus oleraceus, in vivo, other, 168 h
Pisum sativum [6] = assay: Phytotoxicity in Pisum sativum (pea) assessed as emergence at 3 kg ai/ha applied to soil measured up to 7 days post planting at 19 degC relative to untreated control; assay type: organism-based; settings: lathyrus oleraceus, in vivo, other, 168 h
Gossypium hirsutum [7] = assay: Phytotoxicity in Gossypium hirsutum (cotton) assessed as concentration required to cause foliar edge burn applied through foliar spray after 3 weeks; assay type: organism-based; settings: in vivo, other, 504 h
Meloidogyne incognita [8] = assay: Nematicidal activity against second juvenile stage of Meloidogyne incognita (root-knot nematode) infected lima bean plant assessed as shoot dry weight at 1 kg ai/ha applied to soil measured during planting under green house conditions (reference value: 1.84 +/- 0.18 g); assay type: functional
Gossypium hirsutum [9] = assay: Phytotoxicity in Gossypium hirsutum (cotton) assessed as concentration required to cause foliar edge burn applied to soil after 3 weeks; assay type: organism-based; settings: in vivo, other, 504 h
Meloidogyne incognita [10] = assay: Nematicidal activity against second juvenile stage of Meloidogyne incognita (root-knot nematode) infected pea plant assessed as emergence at 4 kg ai/ha applied to soil measured up to 7 days post planting under green house conditions (reference value: 75 +/- 13%); assay type: functional
Pisum sativum [11] = assay: Phytotoxicity in Pisum sativum (pea) assessed as root dry weight at 2 kg ai/ha applied to soil measured up to 7 days post planting at 27 degC under green house conditions (reference value: 0.33 +/- 0.075 g); assay type: organism-based; settings: lathyrus oleraceus, in vivo, other, 168 h
Phaseolus lunatus [12] = assay: Phytotoxicity in Phaseolus lunatus (lima bean) root assessed as root dry weight at 3.12 kg ai/ha applied to soil measured up to 14 days under green house conditions (reference value: 0.36 +/- 0.071 g); assay type: organism-based; settings: in vivo, other, 336 h
Pisum sativum [13] = assay: Phytotoxicity in Pisum sativum (pea) assessed as plant height at 3 kg ai/ha applied to soil measured up to 14 days post planting at 27 degC under green house conditions (reference value: 9.6 +/- 1.5 cm); assay type: organism-based; settings: lathyrus oleraceus, in vivo, other, 336 h
Meloidogyne incognita [14] = assay: Nematicidal activity against second juvenile stage of Meloidogyne incognita (root-knot nematode) infected lima bean plant assessed as root dry weight at 3 kg ai/ha applied to soil measured up to 7 days post planting under green house conditions (reference value: 0.5 +/- 0.052 g); assay type: functional
Aphis gossypii = assay: Insecticidal activity against Aphis gossypii (cotton aphid) infested cotton assessed as mortality applied through foliar spray after 5 days; assay type: functional
Meloidogyne incognita [15] = assay: Nematicidal activity against second juvenile stage of Meloidogyne incognita (root-knot nematode) infected pea plant assessed as emergence at 3 kg ai/ha applied to soil measured up to 14 days post planting under green house conditions (reference value: 75 +/- 13%); assay type: functional
Meloidogyne incognita [16] = assay: Nematicidal activity against second juvenile stage of Meloidogyne incognita (root-knot nematode) infected pea plant assessed as reduction in root gall index at 3 kg ai/ha applied to soil measured up to 14 days post planting under green house conditions (reference value: 9.7 +/- 0.30%); assay type: functional
Pisum sativum [17] = assay: Phytotoxicity in Pisum sativum (pea) assessed as root dry weight at 3 kg ai/ha applied to soil measured up to 7 days post planting at 27 degC under green house conditions (reference value: 0.33 +/- 0.075 g); assay type: organism-based; settings: lathyrus oleraceus, in vivo, other, 168 h
Myzus persicae = assay: Insecticidal activity against Myzus persicae (green peach aphid) infested tomato assessed as mortality applied through foliar spray after 5 days; assay type: functional
Meloidogyne incognita [18] = assay: Nematicidal activity against second juvenile stage of Meloidogyne incognita (root-knot nematode) infected lima bean plant assessed as reduction in root gall index at 4 kg ai/ha applied to soil measured up to 14 days post planting under green house conditions (reference value: 7 +/- 0.27%); assay type: functional
Meloidogyne incognita [19] = assay: Nematicidal activity against second juvenile stage of Meloidogyne incognita (root-knot nematode) infected lima bean plant assessed as root dry weight at 3 kg ai/ha applied to soil measured up to 14 days post planting under green house conditions (reference value: 0.5 +/- 0.052 g); assay type: functional
Meloidogyne incognita [20] = assay: Nematicidal activity against second juvenile stage of Meloidogyne incognita (root-knot nematode) infected pea plant assessed as root dry weight at 4 kg ai/ha applied to soil measured up to 14 days post planting under green house conditions (reference value: 0.25 +/- 0.041 g); assay type: functional
Meloidogyne incognita [21] = assay: Nematicidal activity against second juvenile stage of Meloidogyne incognita (root-knot nematode) infected lima bean plant assessed as shoot dry weight at 3 kg ai/ha applied to soil measured up to 14 days post planting under green house conditions (reference value: 1.84 +/- 0.18 g); assay type: functional
Meloidogyne incognita [22] = assay: Nematicidal activity against second juvenile stage of Meloidogyne incognita (root-knot nematode) infected lima bean plant assessed as root dry weight at 2 kg ai/ha applied to soil measured during planting under green house conditions (reference value: 0.5 +/- 0.052 g); assay type: functional
Meloidogyne incognita [23] = assay: Nematicidal activity against second juvenile stage of Meloidogyne incognita (root-knot nematode) infected lima bean plant assessed as emergence at 3 kg ai/ha applied to soil measured up to 14 days post planting under green house conditions (reference value: 83 +/- 5%); assay type: functional
Phaseolus lunatus [24] = assay: Phytotoxicity in Phaseolus lunatus (lima bean) plant assessed as plant dry weight at 1.56 kg ai/ha applied to soil measured up to 7 days under green house conditions (reference value: 1.20 +/- 0.21 g); assay type: organism-based; settings: in vivo, other, 168 h
Meloidogyne incognita [25] = assay: Nematicidal activity against second juvenile stage of Meloidogyne incognita (root-knot nematode) infected pea plant assessed as root fresh weight at 4 kg ai/ha applied to soil measured up to 14 days post planting under green house conditions (reference value: 1.83 +/- 0.3 g); assay type: functional
Meloidogyne incognita [26] = assay: Nematicidal activity against second juvenile stage of Meloidogyne incognita (root-knot nematode) infected pea plant assessed as reduction in root gall index at 4 kg ai/ha applied to soil measured up to 7 days post planting under green house conditions (reference value: 9.7 +/- 0.30%); assay type: functional

## CNC(=O)ON=C(C)SC [METHOMYL]
Pisum sativum [1]
  Activity: 3.3 g
Pisum sativum [2]
  Activity: 11.6 g
Pisum sativum [3]
  Activity: 60%
Pisum sativum [4]
  Activity: 9.1 cm
Solanum lycopersicum
  Activity: Non-toxic
Pisum sativum [5]
  Activity: 6.3 cm
Pisum sativum [6]
  Activity: 87%
Gossypium hirsutum [7]
  Activity: 100 µg/mL
Meloidogyne incognita [8]
  Activity: 1.79 g
Gossypium hirsutum [9]
  Activity: 100 µg/mL
Meloidogyne incognita [10]
  Activity: 88%
Pisum sativum [11]
  Activity: 0.16 g
Phaseolus lunatus [12]
  Activity: 0.22 g
Pisum sativum [13]
  Activity: 9.1 cm
Meloidogyne incognita [14]
  Activity: 0.39 g
Aphis gossypii
  LC90: 54 µg/mL (≈ 333 µM)
Aphis gossypii; Aphis gossypii, foliar, 120 h
  LC50: 25 µg/mL (≈ 154 µM)
Meloidogyne incognita [15]
  Activity: 63%
Meloidogyne incognita [16]
  Root_galling_index: 0%
Pisum sativum [17]
  Activity: 0.2 g
Myzus persicae
  LC90: 44 µg/mL (≈ 271 µM)
Myzus persicae; Myzus persicae, foliar, 120 h
  LC50: 9 µg/mL (≈ 55.5 µM)
Meloidogyne incognita [18]
  Root_galling_index: 0%
Meloidogyne incognita [19]
  Activity: 0.38 g
Meloidogyne incognita [20]
  Activity: 0.31 g
Meloidogyne incognita [21]
  Activity: 1.55 g
Meloidogyne incognita [22]
  Activity: 0.36 g
Meloidogyne incognita [23]
  Activity: 83%
Phaseolus lunatus [24]
  Activity: 1.26 g
Meloidogyne incognita [25]
  Activity: 1.36 g
Meloidogyne incognita [26]
  Root_galling_index: 0%
